Source: US9896659B2, “Methods, kits, and compositions for stem cell self-renewal” (STOWERS INSTITUTE FOR MEDICAL RESEARCH, priority 2011, dated 2018)

Tests used:
[1] = tested on: lethally irradiated recipients; assay: Serial transplantation of cultured MNCs without rescue/competitor cells; type: in vivo, mouse
Description: FIGS. 27A-C show ex vivo expansion of normal, long-term repopulating HSC. MNCs containing a known quantity of LSK Flk2^− cells were cultured for 14 days with and without CHIR99021. The cultured progeny of MNCs containing a pre-culture dosage of 0.1, 0.3 or 1.0 LSK Flk2^− cells were transplanted into lethally irradiated recipients along with 1×10^5 rescue/competitor cells (n=10 for each of 6 groups). Peripheral blood was analyzed at 16 weeks post-transplant and competitive repopulating unit (CRU) frequency was determined using L-Calc software (Stem Cell Technologies, Inc.) based on Poisson statistics (Zhang, C. C. & Lodish, H. F. Murine hematopoietic stem cells change their surface phenotype during ex vivo expansion. Blood, Vol. 105, pages 4314-4320 (2005); Miller, C. L. & Eaves, C. J. Expansion in vitro of adult murine hematopoietic stem cells with transplantable lympho-myeloid reconstituting ability. Proceedings of the National Academy of Sciences of the United States of America, Vol. 94, pages 13648-13653 (1997)). […] Fresh MNCs containing 5 or 500 LSK Flk2^− cells, or the progeny of MNCs containing 5 LSK Flk2^− cells cultured for 14 days with and without CHIR99021, were transplanted into lethally irradiated recipients without rescue/competitor cells. At 16-17 weeks post-transplant, bone marrow isolated from 1° recipients was transplanted into 2° recipients and, at 16-17 weeks post-secondary transplant, from 2° into 3° recipients at a dosage of 1×10^6 cells per mouse. Peripheral blood was analyzed for percent donor repopulation at 16 weeks post-1°, 2°, and 3° transplant (upper panels) and percent mature donor-derived B, T and myeloid cells (lower panels).
For competitive repopulation assays, 1×10^5 bone marrow cells congenic with the host (CD45.1^+) were included per mouse. 100 μl of cultured cells or cells freshly isolated and quantified in the same manner were transplanted into lethally irradiated (10 Grays, single dose) Protein tyrosine phosphatase, receptor type, C (Ptprc or CD45.1) recipient mice through the tail vein using an insulin syringe (29 gauge). Mice were placed on Batril® water (Bayer Healthcare, LLC, Shawnee Mission, Kans.) 3 days prior to irradiation which continued for 2 weeks post-irradiation. Repopulation was measured every 4 weeks post-transplant by collection of peripheral blood, red blood cell lysis and staining of CD45.1 (recipient) vs. CD45.2 (donor) engraftment. […] Multi-lineage reconstitution was determined by CD3, B220 (for T and B lymphoid, respectively) and Gr1, Mac-1 (for myeloid) gating on donor (CD45.2^+) cells. […] Bone marrow cells were counted and transplanted as above at a dosage of 1×10^6 per mouse. […]

LSK Flk2^− cells [2] = assay: 10-day culture of bone marrow MNCs with PI3K inhibitor, CHIR99021 or without insulin, expansion of LSK Flk2^− cells; type: cell-based, mouse; settings: 10 days culture; 250 nM CHIR99021; NVP-BEZ235 at indicated concentrations
[3] = tested on: lethally irradiated (10 Gy) CD45.1^+ recipient mice; assay: Transplantation of cultured sorted LSK Flk2^− cells into lethally irradiated recipients, donor engraftment; type: in vivo, mouse; settings: 28-day cultures, 1000 re-sorted LSK Flk2^− cells + 2×10^5 competitor cells; peripheral blood 4 weeks post-transplant
Description: Cells were harvested from the wells prior to transplantation by pipetting up and down several times before transferring to a fresh tube. Residual was then collected by adding more media and repeating. Cells were washed in DMEM (Invitrogen, Cat. No. 31053) without phenol red and added to the appropriate number of whole bone marrow rescue cells from a congenic donor (for 200,000 rescue cells+1,000 re-sorted LSK Flk2^− cells (FIGS. 3F-H) or the non-adherent product of 10 days culture of 100 LSK Flk2^− cultured cells (FIGS. 3I-K) per mouse as indicated). […]
Repopulation was measured at 4 weeks post-transplant by collection of peripheral blood, red blood cell lysis, and staining of CD45.1 (recipient) compared to CD45.2 (donor) engraftment using antibodies purchased from eBiosciences (FITC conjugated CD45.2 (Cat. No. 11-0454-85) and PE-Cy5 conjugated CD45.1 (Cat. No. 15-0453-82)). […] Multi-lineage reconstitution was determined by CD3, B220 (for lymphoid) and Gr1, Mac-1 (for myeloid), as described above.
Cells cultured for 28 days in (1) media, (2) media+BpV(pic), (3) media+CHIR99021 and (4) media+CHIR99021 (1 μM)+BpV(pic) (200 nM) were re-sorted for LSK Flk2^− cells. […] At 4 weeks post-transplant, peripheral blood was analyzed for donor (FIG. 3G) and multi-lineage (FIG. 3H) engraftment. […]

LSK Flk2^− cells [4] = assay: Ex vivo culture of sorted LSK Flk2^− cells with GSK-3β and PTEN inhibitors, expansion by FACS; type: cell-based, mouse
Description: LSK or LSK Flk2^− cells were sorted into 96-well U-bottom tissue culture plates at 100 cells/well with 200 μl media/well. Cells were incubated at 37° C., 5% O2, 5% CO2 (balance N2) for the indicated number of days. One-half total volume of media (see Table 1, below for the base media) was carefully pipetted from the top and replaced with fresh media every other day.
One hundred LSK Flk2^− cells were sorted from wild-type (C57Bl/6) mice and cultured in (1) media, (2) media+1 μM CHIR99021 (a GSK-3β inhibitor, a gift from Dr. Sheng Ding), (3) media+200 nM Dipotassium Bis-peroxo(picolinato)oxovanadate (BpV(pic), a PTEN inhibitor, available from Calbiochem, Cat. No. 203705), (4) media+1 μM CHIR99021+200 nM BpV(pic), (5) media+200 nM Shikonin (also a PTEN inhibitor, available from Calbiochem, Cat. No. 565850), and (6) media+200 nM Shikonin+1 μM CHIR99021. (FIGS. 3B-C). Cells were cultured as described above. Cells were examined at 17 days of culture (FIG. 3B, original magnification 100×) and 23 days (FIG. 3C, original magnification 40×).
LSK Flk2^− cells at 28 days culture in the indicated media conditions were examined (FIG. 3D, original magnification 200×).
FACS analysis of 28 day LSK Flk2^− cells cultured in media+BpV(pic)+CHIR99021 (FIG. 3E) was performed. Cells were pre-gated on live, lineage negative cells.
Fold expansion of LSK Flk2^− cells after 28 days culture in (1) media, (2) media+BpV(pic), (3) media+CHIR99021, and (4) media+CHIR99021+BpV(pic) were analyzed.
Cells cultured for 9 days in (1) media, (2) media+BpV(pic) (200 nM), (3) media+CHIR99021 (100 nM), and (4) media+CHIR99021 (100 nM)+BpV(pic) (200 nM) were re-sorted for LSK Flk2^− cells, and fold expansion of LSK Flk2^− cells after 9 days culture in the indicated conditions was determined (FIG. 3I).
FACS analysis was performed on 9 day LSK Flk2^− cells cultured in media+BpV(pic) (200 nM)+CHIR99021 (100 nM) (FIG. 3J). Cells were pre-gated on live, lineage negative cells.

Compound: Cc1c[nH]c(-c2cnc(NCCNc3ccc(C#N)cn3)nc2-c2ccc(Cl)cc2Cl)n1 [CHIR99021]
- Dose of fresh, unexpanded cells giving equivalent long-term repopulation ([1]; 16 weeks post-secondary transplantation, 5 versus 500 putative HSCs): 100 fold
- Repopulation of tertiary recipients ([1]; 16 weeks post-tertiary transplant, versus 100× uncultured cells): equivalent levels of repopulation with no statistical difference between the two groups
- Survival of tertiary recipients ([1]; Kaplan-Meier, FIG. 27C): survival rates similar to tertiary recipients of 100× uncultured cells
- Donor reconstitution at 16 weeks post-secondary transplant ([1]; secondary lethally-irradiated recipients, 1×10^6 bone marrow cells): 90.6±4.8%
- Expansion of LSK Flk2^− cells (LSK Flk2^− cells [2]): increased the expansion
- Mice showing >1% engraftment [3]: 4/8
- Expansion of LSK cells compared to control (photographs) (LSK Flk2^− cells [4]; 17 and 23 days culture, 1 μM CHIR99021, 200 nM BpV(pic)): greater expansion of LSK cells
- Expansion of LSK Flk2^− cells compared to media without inhibitor (LSK Flk2^− cells [4]; 28 days culture): significant expansion
